Key:
AsPC-1 HiBiT-KRASG12D = molecular target: T1, AsPC-1 HiBiT-KRASG12D (Homo sapiens, UniProt P01116, G12D); assay: HiBiT degradation assay (G12D), AsPC-1 HiBiT-KRASG12D cells; format: cell-based; details: 24 hours treatment; for Dmax: ASPC1, AsPC-1 HiBiT-KRASG12D cells, maximum degradation observed; for DC50: AsPC-1 HiBiT-KRASG12D cells, HiBiT luminescence
T1 construct: insert the HiBiT tag onto the N-terminus of one or more of the endogenous KRAS alleles; endogenous in cells; host or cells: AsPC-1 (ATCC CRL-1682), CRISPR-Cas9 knock-in clone, one tagged allele
T1 sequence (P01116 1-188 isoform P01116-2 G12D): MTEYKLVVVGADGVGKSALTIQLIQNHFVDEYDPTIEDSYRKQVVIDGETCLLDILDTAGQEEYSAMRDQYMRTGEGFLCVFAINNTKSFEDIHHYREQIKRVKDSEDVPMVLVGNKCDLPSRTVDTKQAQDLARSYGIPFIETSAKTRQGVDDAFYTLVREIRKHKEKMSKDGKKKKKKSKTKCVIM
Procedure, shortened: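 Steps: treat HiBiT-KRASG12D AsPC-1 cells with compound for 24 hours; add alamar blue to 1× and incubate 4 hours to assess viability; wash with PBS; add HiBiT lytic detection reagent, incubate 45 minutes at room temperature; read luminescence. Viability fluorescence is normalized to DMSO wells.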

SW1573 HiBiT-KRASG12C = molecular target: T2, SW1573 HiBiT-KRASG12C (Homo sapiens, UniProt P01116, G12C); assay: HiBiT degradation assay (G12C), SW1573 HiBiT-KRASG12C cells; format: cell-based; details: 24 hours treatment; for Dmax: maximum degradation observed;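 for SW1573 HiBiT-KRASG12C DC50 (nM): Letter grades: C is 1000 to 3000 nM and D is above 3000 nM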
T2 construct: expressed in transfected cells
T2 sequence (P01116 1-188 isoform P01116-2 G12C): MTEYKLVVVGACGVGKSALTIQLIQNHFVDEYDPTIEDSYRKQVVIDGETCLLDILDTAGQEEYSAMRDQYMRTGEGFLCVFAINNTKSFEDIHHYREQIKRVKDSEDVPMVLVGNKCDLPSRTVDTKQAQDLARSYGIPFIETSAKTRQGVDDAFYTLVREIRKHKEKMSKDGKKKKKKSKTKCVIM
Experimental: Reagents. SW1573 (CRL-2170), AsPC-1 (CRL-1682), and SW620 (CCL-227) cells were purchased from ATCC. SW1573 cells are homozygous for the G12C mutation in KRAS, AsPC-1 cells are homozygous for the G12D mutation, and SW620 cells are homozygous for the G12V mutation. SW1573 cells were cultured in DMEM+F12+Glutamax (+Sodium Bicarbonate, +sodium pyruvate, ThermoFisher scientific, #10565) supplemented with 10% FBS (ThermoFisher scientific, #2060357) and 1% Antibiotic-Antimycotic (ThermoFisher scientific, #15240096). AsPC-1 cells were cultured in GIBCO RPMI-1640 (ThermoFisher scientific, catalog #61870-036 with Glutamax, No HEPES, No Na Pyruvate) supplemented with 10% FBS (ThermoFisher scientific, catalog #2060357) and 1× Penicillin-Streptomycin (ThermoFisher scientific, catalog #15140122, 10000 U/ml, 100×). SW620 cells were cultured in DMEM Glutamax (ThermoFisher scientific, catalog #10566016) supplemented with 10% FBS (ThermoFisher scientific, catalog #2060357) and 1× Penicillin-Streptomycin (ThermoFisher scientific, catalog #15140122, 10000 U/ml, 100×). For degradation assays, 384 well plates were used. Alamar blue was purchased from ThermoFisher scientific (A50101) and used according to manufacturer instructions. The Nano-Glo® HiBiT Lytic Detection System and Nano-Glo® HiBiT Blotting System were purchased from Promega (#N3050 and #N2410) and used according to manufacturer instructions.
HiBiT-tagged cell line generation. To create the SW1573 HiBiT-KRASG12C cell line, the nucleotide sequence encoding the 11 amino acid HiBiT tag from Promegal was appended to the N-terminus of the KRASG12C coding sequence. This synthesized DNA was cloned into a modified pcDNA3.1 vector under the control of the thymidine kinase (TK) promoter. This HiBiT-KRASG12C expressing plasmid was transfected into parental SW1573 cells and colonies were selected using 400 μg/mL zeocin. The resulting clonal lines were screened for expression of HiBiT-KRASG12C protein using Nano-Glo® HiBiT Blotting System. A luminescent band of the correct size for HiBiT-KRASG12C was detected in several clones. Clone E6 was selected for further studies.
HiBiT degradation assays (G12C and G12D). Either SW1573 HiBiT-KRasG12C or AsPC-1 HiBiT-KRasG12D cells were plated at 9000 or 15,000 cells/well in a 384 well plate (Corning #3770). Compounds of the present disclosure and positive controls were diluted in the appropriate cell media and applied to the plated cells resulting in a final concentration titration of 10 μM to 508 pM in 0.5% DMSO. Gambogic acid was used as a positive control for cytotoxicity and titrated from 10 μM to 78 nM. All assays were performed in triplicate. Cells were treated with compounds for 24 hours at 37° C. in an incubator containing 5% CO2. Following treatment, alamar blue was used to determine if any compounds led to a loss in cell viability after 24 hours. The 10× alamar blue reagent was added to a final concentration of 1× as recommended by the manufacturer and cells were returned to the incubator for 4 hours. Plates were then allowed to equilibrate to room temperature and fluorescence was measured using a Perkin-Elmer EnVision. After completion of the fluorescence read, the liquid from each well was removed and the cells were washed with PBS. The Nano-Glo® HiBiT detection reagent was prepared according to the manufacturer's instructions and added to each well after the PBS wash was removed. Following incubation at room temperature for 45 minutes, the luminescence was read using the ultra-sensitive luminescence aperture on the Envision instrument.
Data analysis. Fluorescence values from the alamar blue treatment were normalized to the DMSO-only control for each compound titration. […]

Row | SMILES | Dmax (AsPC-1 HiBiT-KRASG12D) [%] | DC50 (AsPC-1 HiBiT-KRASG12D) [µM] | DC50 (SW1573 HiBiT-KRASG12C; HiBiT luminescence) [µM] | Dmax (SW1573 HiBiT-KRASG12C) [%] | SW1573 HiBiT-KRASG12C DC50 (nM) (SW1573 HiBiT-KRASG12C; HiBiT luminescence)
1 | CCc1cccc2cc(O)cc(-c3ncc4c(N5CC6CCC(C5)N6)nc(OC[C@@]56CCCN5[C@H](COCC(=O)N[C@H](C(=O)N5C[C@H](O)C[C@H]5C(=O)N[C@@H](C)c5ccc(-c7scnc7C)cc5)C(C)(C)C)CC6)nc4c3F)c12 [Compound 2, (2S,4R)-1-[(2S)-2-(2-{[(3S,7aS)-7a-{[(4-{3,8-diazabicyclo[3.2.1]octan-3-yl}-7-(8-ethyl-3-hydroxynaphthalen-1-yl)-8-fluoropyrido[4,3-d]pyrimidin-2-yl)oxy]methyl}-hexahydro-1H-pyrrolizin-3-yl]methoxy}acetamido)-3,3-dimethylbutanoyl]-4-hydroxy-N-[(1S)-1-[4-(4-methyl-1,3-thiazol-5-yl)phenyl]ethyl]pyrrolidine-2-carboxamide] | 80 to 100 | < 0.6 | 1 to 3 | 20 to 60 | –
2 | CCc1cccc2cc(O)cc(-c3ncc4c(N5CCCCCC5)nc(OC[C@]56CCCN5[C@@H](COC(=O)N5CCN(c7cc([C@@H](C(=O)N8C[C@H](O)C[C@H]8C(=O)N[C@@H](C)c8ccc(-c9scnc9C)cc8)C(C)C)on7)CC5)CC6)nc4c3F)c12 [Compound 46, [(3R,7aR)-7a-({[4-(azepan-1-yl)-7-(8-ethyl-3-hydroxynaphthalen-1-yl)-8-fluoropyrido[4,3-d]pyrimidin-2-yl]oxy}methyl)-hexahydro-1H-pyrrolizin-3-yl]methyl 4-{5-[(2S)-1-[(2S,4R)-4-hydroxy-2-{[(1S)-1-[4-(4-methyl-1,3-thiazol-5-yl)phenyl]ethyl]carbamoyl}pyrrolidin-1-yl]-3-methyl-1-oxobutan-2-yl]-1,2-oxazol-3-yl}piperazine-1-carboxylate] | – | > 3 | > 3 | – | –
3 | CCc1cccc2cc(O)cc(-c3ncc4c(N5CC6CCC(C5)N6)nc(OC[C@]56CCCN5[C@@H](COc5cc(C(C(=O)N7C[C@H](O)C[C@H]7C(=O)N[C@@H](C)c7ccc(-c8scnc8C)cc7)C(C)C)on5)CC6)nc4c3F)c12 (stereo partly drawn) [Compound 38, (2S,4R)-1-[2-(3-{[(3R,7aR)-7a-{[(4-{3,8-diazabicyclo[3.2.1]octan-3-yl}-7-(8-ethyl-3-hydroxynaphthalen-1-yl)-8-fluoropyrido[4,3-d]pyrimidin-2-yl)oxy]methyl}-hexahydro-1H-pyrrolizin-3-yl]methoxy}-1,2-oxazol-5-yl)-3-methylbutanoyl]-4-hydroxy-N-[(1S)-1-[4-(4-methyl-1,3-thiazol-5-yl)phenyl]ethyl]pyrrolidine-2-carboxamide] | 80 to 100 | < 0.6 | 1 to 3 | 20 to 60 | –
4 | CCc1cccc2cccc(-c3ncc4c(N5CC6CCC(C5)N6)nc(OC[C@]56CCCN5[C@@H](COC(=O)N5CCN(c7cc([C@H](C(=O)N8C[C@H](O)C[C@H]8C(=O)N[C@@H](C)c8ccc(-c9scnc9C)cc8)C(C)C)on7)CC5)CC6)nc4c3F)c12 [Compound 34, [(3R,7aR)-7a-{[(4-{3,8-diazabicyclo[3.2.1]octan-3-yl}-7-(8-ethylnaphthalen-1-yl)-8-fluoropyrido[4,3-d]pyrimidin-2-yl)oxy]methyl}-hexahydro-1H-pyrrolizin-3-yl]methyl 4-{5-[(2R)-1-[(2S,4R)-4-hydroxy-2-{[(1S)-1-[4-(4-methyl-1,3-thiazol-5-yl)phenyl]ethyl]carbamoyl}pyrrolidin-1-yl]-3-methyl-1-oxobutan-2-yl]-1,2-oxazol-3-yl}piperazine-1-carboxylate] | 80 to 100 | < 0.6 | > 3 | – | –
5 | Cc1ncsc1-c1ccc([C@H](C)NC(=O)[C@@H]2C[C@@H](O)CN2C(=O)[C@@H](c2cc(OCC3CCN(CCOc4nc(N5CC6CCC(C5)N6)c5cnc(-c6c(OC(F)(F)F)ccc7[nH]ncc67)c(F)c5n4)CC3)no2)C(C)C)cc1 [Compound 47, (2S,4R)-1-[(2R)-2-{3-[(1-{2-[(4-{3,8-diazabicyclo[3.2.1]octan-3-yl}-8-fluoro-7-[5-(trifluoromethoxy)-1H-indazol-4-yl]pyrido[4,3-d]pyrimidin-2-yl)oxy]ethyl}piperidin-4-yl)methoxy]-1,2-oxazol-5-yl}-3-methylbutanoyl]-4-hydroxy-N-[(1S)-1-[4-(4-methyl-1,3-thiazol-5-yl)phenyl]ethyl]pyrrolidine-2-carboxamide] | – | > 3 | > 3 | – | –
6 | Cc1ncsc1-c1ccc([C@H](C)NC(=O)[C@@H]2C[C@@H](O)CN2C(=O)[C@@H](c2cc(OCC3CCN(CCOc4nc(N5CC6CCC(C5)N6)c5cnc(-c6cc(O)cc7ccccc67)c(F)c5n4)CC3)no2)C(C)C)cc1 [Compound 22, (2S,4R)-1-[(2R)-2-[3-[[1-[2-[4-(3,8-diazabicyclo[3.2.1]octan-3-yl)-8-fluoro-7-(3-hydroxy-1-naphthyl)pyrido[4,3-d]pyrimidin-2-yl]oxyethyl]-4-piperidyl]methoxy]isoxazol-5-yl]-3-methyl-butanoyl]-4-hydroxy-N-[(1S)-1-[4-(4-methylthiazol-5-yl)phenyl]ethyl]pyrrolidine-2-carboxamide] | 20 to 60 | 0.6 to 1 | – | – | C/D*
7 | Cc1ncsc1-c1ccc([C@H](C)NC(=O)[C@@H]2C[C@@H](O)CN2C(=O)[C@@H](c2cc(N3CCN(C(=O)OC[C@H]4CC[C@@]5(COc6nc(N7CC8CCC(C7)N8)c7cnc(-c8cc(O)cc9ccccc89)c(F)c7n6)CCCN45)CC3)no2)C(C)C)cc1 [Compound 37, [(3R,7aR)-7a-{[(4-{3,8-diazabicyclo[3.2.1]octan-3-yl}-8-fluoro-7-(3-hydroxynaphthalen-1-yl)pyrido[4,3-d]pyrimidin-2-yl)oxy]methyl}-hexahydro-1H-pyrrolizin-3-yl]methyl 4-{5-[(2R)-1-[(2S,4R)-4-hydroxy-2-{[(1S)-1-[4-(4-methyl-1,3-thiazol-5-yl)phenyl]ethyl]carbamoyl}pyrrolidin-1-yl]-3-methyl-1-oxobutan-2-yl]-1,2-oxazol-3-yl}piperazine-1-carboxylate] | 80 to 100 | < 0.6 | > 3 | – | –
8 | Cc1ncsc1-c1ccc([C@H](C)NC(=O)[C@@H]2C[C@@H](O)CN2C(=O)[C@@H](c2cc(OCC3CCN(CCOc4nc(N5CC6CCC(C5)N6)c5cnc(-c6cc(O)cc7cccc(Cl)c67)c(F)c5n4)CC3)no2)C(C)C)cc1 [Compound 40, (2S,4R)-1-[(2R)-2-(3-{[1-(2-{[7-(8-chloro-3-hydroxynaphthalen-1-yl)-4-{3,8-diazabicyclo[3.2.1]octan-3-yl}-8-fluoropyrido[4,3-d]pyrimidin-2-yl]oxy}ethyl)piperidin-4-yl]methoxy}-1,2-oxazol-5-yl)-3-methylbutanoyl]-4-hydroxy-N-[(1S)-1-[4-(4-methyl-1,3-thiazol-5-yl)phenyl]ethyl]pyrrolidine-2-carboxamide] | 80 to 100 | < 0.6 | > 3 | – | –
9 | CCc1cccc2cc(O)cc(-c3ncc4c(N5CC6CCC(C5)N6)nc(OCCN5CCC(CCOCC(=O)N[C@H](C(=O)N6C[C@H](O)C[C@H]6C(=O)N[C@@H](C)c6ccc(-c7scnc7C)cc6)C(C)(C)C)CC5)nc4c3F)c12 [Compound 13] | 80 to 100 | 0.6 to 1 | > 3 | – | –

— US20250206732A1, “COMPOUNDS AND METHODS FOR THE TARGETED DEGRADATION OF KRAS” (Arvinas Operations, Inc., priority 2022, published 2025)
